# “Also recorded” adds a separate entry of the source.
# Legend:
# [1] = system: PGD2 receptors (CRTH2 and DP) on HL-60 membranes; test: [3H]PGD2 radioligand binding assay on HL-60 cell membranes; details: for differentiation-induced increase in PGD2 binding competed away: butyric acid differentiated HL-60, Example 3; for tritiated PGD2 binding on membranes competed away: membranes from butyric acid-differentiated HL-60 cells, 1 uM unlabeled competitor, FIG. 2; for binding of labeled PGD2 to membranes: membranes from undifferentiated HL-60 cells
# Protocol: (§1) Membranes were isolated from butyric acid-differentiated HL-60 or undifferentiated AML14.3D10 and used in the PGD2 binding assay in the presence or absence of various 1 uM of non-labeled receptor agonists described here below:
# (§2) Specific binding of radioactive PGD2 to the membrane was measured and compared to the value obtained in the absence of competitor (ctrl=100% maximum binding).
# (§3) HL-60 or AML14.3D10 cells are collected by centrifugation for 6 min at 300 g at 4° C., washed with PBS, centrifuged as before and suspended in 10 mM HEPES/KOH pH 7.4, 1 mM EDTA. The cells are disrupted by nitrogen cavitation (800 psi for 30 min. on ice) in the presence of protease inhibitors (2 mM AEBSF, 10 μM E-64, 100 μM leupeptin and 0.05 mg/ml pepstatin). Cell membrane is isolated by differential centrifugation at 4° C., first at 1000 g for 10 min then 160 000 g for 30 min. After centrifugation the pellet comprising the cell membrane is suspended in 10 mM HEPES/KOH pH 7.4, 1 mM EDTA, pH 7.4 buffer using Dounce homogenization.
# (§4) For these assays, specific receptor binding is defined as total associated radioactivity minus the radioactivity measured in the presence of an excess of unlabeled competing ligand. Where possible, more than one competing ligand is used to define residual nonspecific binding. Ligand binding assays are performed using whole cells or cell membranes derived therefrom.
# (§5) Radioligand binding assays are performed in 10 mM HEPES/KOH pH 7.4, 1 mM EDTA containing 10 mM MnCl2 and 0.8 nM [^3H]PGD2, in a final volume of 0.2 ml. The reaction is initiated by the addition of 250 μg of membrane protein, prepared as described above. Ligands in dimethylsulfoxide which is kept constant at 1% (v/v) of the final incubation volume are added. Non-specific binding is determined in the presence of 10 μM PGD2. Incubation is conducted for 60 min. at room temperature and is terminated by rapid filtration through GF/C filters prewetted in cold assay incubation buffer (no EDTA) using a Brandel™ harvester. The filter is then washed with 4 ml of the same buffer and residual radioligand bound to the filter is determined by liquid scintillation counting following equilibration in 5 ml Ultima Gold™ (Packard).
# [2] = system: PGD2 receptors (CRTH2 and DP) on AML14.3D10 membranes; test: [3H]PGD2 radioligand binding assay on AML14.3D10 cell membranes; details: for differentiation-induced increase in PGD2 binding competed away: butyric acid differentiated AML14.3D10, Example 3; for tritiated PGD2 binding on membranes competed away: membranes from nondifferentiated or differentiated AML14.3D10, 1 uM unlabeled competitor, FIG. 2; for binding of labeled PGD2 to membranes: membranes from undifferentiated AML14.3D10 cells
# Protocol: as §1, §2, §3, §4, §5
# HL-60 cells = test: Butyric acid induced differentiation of HL-60 cells, read out as PGD2 binding to membranes; assay type: cell-based; details: 0.4 mM butyric acid for 7 days
# Protocol: (§6) For example, referring to FIG. 1, shown therein are the results of a binding assay, specifically the binding of radioactive PGD2 to membranes. The assay measures the amount of labeled […] bound to cell membranes derived from the herein disclosed cell lines. Briefly, AML14.3D10 and […] cell lines are incubated in the absence and/or presence of […] of butyric acid for 7 days. Membranes were thereafter isolated from the cells and used in aforementioned PGD2 binding assays.
# (§7) On the first day of the experiment cells are split at 2×10^5 cells/ml and supplemented with 0.4 mM butyric acid. On the fourth day the cells are diluted to 2×10^5 cells/ml and the concentration of butyric acid is adjusted to 0.4 mM. The cells are harvested on the seventh day.
# (§8) HL-60 or AML14.3D10 cells are collected by centrifugation for 6 min at 300 g at 4° C., washed with PBS, centrifuged as before and suspended in 10 mM HEPES/KOH pH 7.4, 1 mM EDTA. […]
# (§9) Radioligand binding assays are performed in 10 mM HEPES/KOH pH 7.4, 1 mM EDTA containing 10 mM MnCl2 and 0.8 nM [^3H]PGD2, in a final volume of 0.2 ml. […] Non-specific binding is determined in the presence of 10 μM PGD2. […] The filter is then washed with 4 ml of the same buffer and residual radioligand bound to the filter is determined by liquid scintillation counting following equilibration in 5 ml Ultima Gold™ (Packard).
# AML14.3D10 cells = test: Butyric acid induced differentiation of AML14.3D10 cells, read out as PGD2 binding to membranes; assay type: cell-based; details: 0.4 mM butyric acid for 7 days
# Protocol: as §6, §7, §8, §9
Structure (SMILES),differentiation-induced increase in PGD2 binding competed away [1],tritiated PGD2 binding on membranes competed away [1],differentiation-induced increase in PGD2 binding competed away [2],tritiated PGD2 binding on membranes competed away [2],binding of labeled PGD2 to membranes [1],binding of labeled PGD2 to membranes ([1]; listed as 3HPGD2),binding of labeled PGD2 to membranes [2],binding of labeled PGD2 to membranes ([2]; listed as 3HPGD2),effect of butyric acid treatment on PGD2 binding to membranes (HL-60 cells),effect of butyric acid treatment on PGD2 binding to membranes (AML14.3D10 cells)
O=C(O)CCCCCCC1C(=O)NC(=O)N1CCC(O)C1CCCCC1 (centres unmarked) [BW245C],about 10%,about 10%,about 10%,about 10%,,,,,,
"CCCCCC(=O)CCC1C(=O)CC(O)C1C/C=C\CCCC(=O)O (centres unmarked) [DK-PGD2, 13,14-dihydro-15-keto-PGD2]",About 90%,about 90%,About 90%,about 90%,,,,,,
"CCCCC[C@H](O)/C=C/[C@H]1C(=O)C[C@H](O)[C@@H]1C/C=C\CCCC(=O)O [PGD2, Prostaglandin D2]",,,,,minimal amount of PGD2 binding,does not bind,appreciable level of PGD2 binding,significant level of binding,,
CCCC(=O)O [butyric acid],,,,,,,,,significant increase in PGD2 binding; also recorded: acquired the capacity to bind,significant increase in PGD2 binding; also recorded: increased binding of PGD2
